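Following 48 hours of exposure in 96-well plates, responses at five concentrations were used to interpolate endpoints linearly. Definition used: TGI = concentration required for complete inhibition of growth.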
How the values were obtained:
Experiment in all cases: inhibition of tumour cell growth, NCI panel, 48 h
PC-3 prostate = system: PC-3 prostate
SNB-75 CNS = system: SNB-75 CNS
UACC-257 melanoma = system: UACC-257 melanoma
HCC-2998 colon = system: HCC-2998 colon
UACC-62 melanoma = system: UACC-62 melanoma
SW-620 colon = system: SW-620 colon
K-562 leukemia = system: K-562 leukemia
NCI-H522 lung = system: NCI-H522 lung
MDA-MB-231 breast = system: MDA-MB-231 breast
HS 578T breast = system: HS 578T breast

SMILES: OCCCN(CCc1ccc(Cl)c(Cl)c1)CCN1CCCC1
- TGI (PC-3 prostate): > 100 µM
- TGI (SNB-75 CNS): > 100 µM
- TGI (UACC-257 melanoma): 36 µM
- TGI (HCC-2998 colon): 32.9 µM
- TGI (UACC-62 melanoma): 31.5 µM
- TGI (SW-620 colon): > 100 µM
- TGI (K-562 leukemia): 46.2 µM
- TGI (NCI-H522 lung): 54.5 µM
- TGI (MDA-MB-231 breast): > 100 µM
- TGI (HS 578T breast): > 100 µM

SMILES: CC1(C)OC[C@@]2([C@@H]3CC[C@@H](C3)C2(C)C)N1O
- TGI (PC-3 prostate): > 100 µM
- TGI (SNB-75 CNS): > 100 µM
- TGI (UACC-257 melanoma): > 100 µM
- TGI (UACC-62 melanoma): > 100 µM
- TGI (SW-620 colon): > 100 µM
- TGI (K-562 leukemia): > 100 µM
- TGI (NCI-H522 lung): > 100 µM
- TGI (MDA-MB-231 breast): > 100 µM
- TGI (HS 578T breast): > 100 µM

SMILES: CC1CSc2nc3[nH]c(=S)[nH]c3c(=O)n2C1 (stereo unspecified)
- TGI (SNB-75 CNS): > 100 µM
- TGI (UACC-257 melanoma): > 100 µM
- TGI (HCC-2998 colon): > 100 µM
- TGI (UACC-62 melanoma): > 100 µM
- TGI (SW-620 colon): > 100 µM
- TGI (K-562 leukemia): > 100 µM
- TGI (MDA-MB-231 breast): > 100 µM

SMILES: CC1=CC[C@H](C)C(C)(C)C1/C=C/C(C)=C/CC[C@@]1(CO)[C@H](CCCO)/C(=C(/C)C=O)CC[C@]1(C)O (stereo partly specified)
- TGI (UACC-257 melanoma): 28.8 µM
- TGI (HCC-2998 colon): 4.41 µM
- TGI (SW-620 colon): 12.5 µM
- TGI (K-562 leukemia): 11.8 µM
- TGI (NCI-H522 lung): 11.3 µM

SMILES: C=CCC1(O)c2cccc(O)c2C(=O)c2cccc(O)c21 (stereo unspecified)
- TGI (PC-3 prostate): 47.3 µM
- TGI (SNB-75 CNS): 52 µM
- TGI (UACC-257 melanoma): 38.7 µM
- TGI (HCC-2998 colon): 30.3 µM
- TGI (SW-620 colon): > 100 µM
- TGI (K-562 leukemia): > 100 µM
- TGI (NCI-H522 lung): 42 µM
- TGI (MDA-MB-231 breast): 53.4 µM
- TGI (HS 578T breast): 41.8 µM

SMILES: CC1(C)N=C(N)N=C(N)N1c1ccc(CCCCc2ccc(Cl)cc2Cl)cc1
- TGI (PC-3 prostate): 3.27 µM
- TGI (UACC-257 melanoma): 8.65 µM
- TGI (HCC-2998 colon): 17.4 µM
- TGI (SW-620 colon): 12.9 µM
- TGI (K-562 leukemia): > 100 µM
- TGI (NCI-H522 lung): 14.3 µM
- TGI (MDA-MB-231 breast): 16.6 µM
- TGI (HS 578T breast): 22.9 µM

SMILES: COc1ccccc1/C=C1/Sc2scc(CC(=O)Nc3ccccc3)[n+]2C1=O
- TGI (PC-3 prostate): 93.3 µM
- TGI (SNB-75 CNS): > 100 µM
- TGI (UACC-257 melanoma): 80.4 µM
- TGI (HCC-2998 colon): > 100 µM
- TGI (UACC-62 melanoma): 45.1 µM
- TGI (SW-620 colon): > 100 µM
- TGI (NCI-H522 lung): 73.4 µM
- TGI (MDA-MB-231 breast): 70.8 µM
- TGI (HS 578T breast): > 100 µM

SMILES: CSc1nc(-c2cc3c(c(SC)n2)CCC3)cc2c1CCC2
- TGI (PC-3 prostate): > 100 µM
- TGI (SNB-75 CNS): > 100 µM
- TGI (UACC-257 melanoma): > 100 µM
- TGI (HCC-2998 colon): > 100 µM
- TGI (UACC-62 melanoma): > 100 µM
- TGI (SW-620 colon): > 100 µM
- TGI (K-562 leukemia): > 100 µM
- TGI (NCI-H522 lung): > 100 µM
- TGI (MDA-MB-231 breast): > 100 µM

SMILES: CCCC(=O)N[C@@H](Cc1cc(I)c(O)c(I)c1)C(=O)NCCCNCCCCNCCCNC(=O)[C@@H](N)CCCN=C(N)N
- TGI (UACC-257 melanoma): > 100 µM
- TGI (HCC-2998 colon): > 100 µM
- TGI (UACC-62 melanoma): > 100 µM
- TGI (SW-620 colon): > 100 µM
- TGI (K-562 leukemia): > 100 µM
- TGI (NCI-H522 lung): > 100 µM

SMILES: COc1cccc(NC(=O)N/C(=C/c2ccc(N(CCC#N)CCC#N)cc2)NC(=O)c2cc([N+](=O)[O-])ccc2Cl)c1
- TGI (UACC-62 melanoma): > 100 µM
- TGI (K-562 leukemia): > 100 µM
- TGI (NCI-H522 lung): > 100 µM

SMILES: C/C(=N/NC(=S)N(Cc1ccccn1)Cc1ccccn1)c1cnccn1
- TGI (PC-3 prostate): 26 µM
- TGI (SNB-75 CNS): 17.2 µM
- TGI (UACC-257 melanoma): 8.61 µM
- TGI (HCC-2998 colon): > 43.4 µM
- TGI (SW-620 colon): 49.2 µM
- TGI (K-562 leukemia): > 100 µM
- TGI (NCI-H522 lung): 1.56 µM
- TGI (MDA-MB-231 breast): 21.7 µM
- TGI (HS 578T breast): 55.7 µM

SMILES: O=C(/C=C/c1ccc(Cl)c(Cl)c1)CCN1CCN(CCC(=O)/C=C/c2ccc(Cl)c(Cl)c2)CC1
- TGI (PC-3 prostate): 57.1 µM
- TGI (SNB-75 CNS): > 100 µM
- TGI (UACC-257 melanoma): > 100 µM
- TGI (HCC-2998 colon): 28.9 µM
- TGI (UACC-62 melanoma): 45.3 µM
- TGI (SW-620 colon): 52.1 µM
- TGI (K-562 leukemia): > 100 µM
- TGI (NCI-H522 lung): 31.6 µM
- TGI (MDA-MB-231 breast): 56.7 µM

SMILES: N#Cc1nc(Cc2ccccc2)oc1N
- TGI (PC-3 prostate): > 100 µM
- TGI (UACC-257 melanoma): > 100 µM
- TGI (SW-620 colon): > 100 µM
- TGI (K-562 leukemia): > 100 µM
- TGI (MDA-MB-231 breast): > 100 µM
- TGI (HS 578T breast): > 100 µM

SMILES: C/C(=C1/N=C(c2cc([N+](=O)[O-])ccc2Cl)N(C2=CC=C(Cl)CC2)C1=O)c1cc2ccccc2oc1=O
- TGI (SNB-75 CNS): > 100 µM
- TGI (UACC-257 melanoma): > 100 µM
- TGI (HCC-2998 colon): > 100 µM
- TGI (UACC-62 melanoma): > 100 µM
- TGI (SW-620 colon): > 100 µM
- TGI (K-562 leukemia): > 100 µM
- TGI (NCI-H522 lung): > 100 µM
